The NIST ThermoML archive (doi:10.1021/je7002836)

Assays:
[1] = xn = mol fraction of the nth substance listed; conditions: 101 kPa, Liquid
[2] = molar heat capacity at constant pressure; xn = mol fraction of the nth substance listed; conditions: 101 kPa, Liquid

CCCC[n+]1cccc(C)c1.F[B-](F)(F)F [1-butyl-3-methylpyridinium tetrafluoroborate] + O
Conditions	mass density, [1] [kg/m3]	molar heat capacity at constant pressure, [2] [J/K/mol]
293.15 K, x1 = 0.0015	–	76.7
293.15 K, x1 = 0.002	–	77.4
293.15 K, x1 = 0.0027	–	77.7
293.15 K, x1 = 0.0036	–	78.1
293.15 K, x1 = 0.0102	–	81
293.15 K, x1 = 0.0494	1066	–
293.15 K, x1 = 0.0938	–	112.7
293.15 K, x1 = 0.0973	1095.9	–
293.15 K, x1 = 0.1885	–	142.4
293.15 K, x1 = 0.2312	1139.7	–
293.15 K, x1 = 0.2704	–	167
293.15 K, x1 = 0.3559	1157.3	–
293.15 K, x1 = 0.362	–	193.8
293.15 K, x1 = 0.4035	1161.8	–
293.15 K, x1 = 0.4454	–	218.2
293.15 K, x1 = 0.5195	1167.9	–
293.15 K, x1 = 0.6432	–	275.2
293.15 K, x1 = 0.7087	1179.5	–
293.15 K, x1 = 0.7512	1181.2	–
293.15 K, x1 = 0.8094	–	325.2
293.15 K, x1 = 0.8791	–	346
293.15 K, x1 = 0.8838	1183.2	–
293.15 K, x1 = 0.9468	–	367.8
293.15 K, x1 = 1	1188.6	385.8
298.15 K, x1 = 0.0015	–	76.7
298.15 K, x1 = 0.002	–	77.4
298.15 K, x1 = 0.0027	–	77.7
298.15 K, x1 = 0.0036	–	78.2
298.15 K, x1 = 0.0102	–	81.1
298.15 K, x1 = 0.0494	1063.3	–
298.15 K, x1 = 0.0938	–	113.1
298.15 K, x1 = 0.0973	1092.7	–
298.15 K, x1 = 0.1885	–	143.1
298.15 K, x1 = 0.2312	1136	–
298.15 K, x1 = 0.2704	–	167.8
298.15 K, x1 = 0.3559	1153.6	–
298.15 K, x1 = 0.362	–	195
298.15 K, x1 = 0.4035	1158.2	–
298.15 K, x1 = 0.4454	–	219.3
298.15 K, x1 = 0.5195	1164.3	–
298.15 K, x1 = 0.6432	–	276.9
298.15 K, x1 = 0.7087	1176	–
298.15 K, x1 = 0.7512	1177.8	–
298.15 K, x1 = 0.8094	–	327.3
298.15 K, x1 = 0.8791	–	348.3
298.15 K, x1 = 0.8838	1179.8	–
298.15 K, x1 = 0.9468	–	370.4
298.15 K, x1 = 1	1185.2	387.7
303.15 K, x1 = 0.0015	–	76.8
303.15 K, x1 = 0.002	–	77.5
303.15 K, x1 = 0.0027	–	77.7
303.15 K, x1 = 0.0036	–	78.2
303.15 K, x1 = 0.0102	–	81.2
303.15 K, x1 = 0.0494	1060.4	–
303.15 K, x1 = 0.0938	–	113.4
303.15 K, x1 = 0.0973	1089.4	–
303.15 K, x1 = 0.1885	–	143.8
303.15 K, x1 = 0.2312	1132.3	–
303.15 K, x1 = 0.2704	–	168.6
303.15 K, x1 = 0.3559	1150	–
303.15 K, x1 = 0.362	–	196.1
303.15 K, x1 = 0.4035	1154.5	–
303.15 K, x1 = 0.4454	–	220.5
303.15 K, x1 = 0.5195	1160.8	–
303.15 K, x1 = 0.6432	–	278.6
303.15 K, x1 = 0.7087	1172.5	–
303.15 K, x1 = 0.7512	1174.3	–
303.15 K, x1 = 0.8094	–	329.5
303.15 K, x1 = 0.8791	–	350.8
303.15 K, x1 = 0.8838	1176.3	–
303.15 K, x1 = 0.9468	–	373
303.15 K, x1 = 1	1181.7	390.1
308.15 K, x1 = 0.0015	–	76.9
308.15 K, x1 = 0.002	–	77.6
308.15 K, x1 = 0.0027	–	77.8
308.15 K, x1 = 0.0036	–	78.3
308.15 K, x1 = 0.0102	–	81.3
308.15 K, x1 = 0.0494	1057.5	–
308.15 K, x1 = 0.0938	–	113.8
308.15 K, x1 = 0.0973	1086	–
308.15 K, x1 = 0.1885	–	144.5
308.15 K, x1 = 0.2312	1128.7	–
308.15 K, x1 = 0.2704	–	169.5
308.15 K, x1 = 0.3559	1146.4	–
308.15 K, x1 = 0.362	–	197.3
308.15 K, x1 = 0.4035	1150.9	–
308.15 K, x1 = 0.4454	–	221.7
308.15 K, x1 = 0.5195	1157.2	–
308.15 K, x1 = 0.6432	–	280.3
308.15 K, x1 = 0.7087	1169.1	–
308.15 K, x1 = 0.7512	1170.8	–
308.15 K, x1 = 0.8094	–	331.7
308.15 K, x1 = 0.8791	–	353.3
308.15 K, x1 = 0.8838	1172.9	–
308.15 K, x1 = 0.9468	–	375.7
308.15 K, x1 = 1	1178.3	392.8
313.15 K, x1 = 0.0015	–	77
313.15 K, x1 = 0.002	–	77.6
313.15 K, x1 = 0.0027	–	77.9
313.15 K, x1 = 0.0036	–	78.4
313.15 K, x1 = 0.0102	–	81.5
313.15 K, x1 = 0.0494	1054.5	–
313.15 K, x1 = 0.0938	–	114.2
313.15 K, x1 = 0.0973	1082.5	–
313.15 K, x1 = 0.1885	–	145.2
313.15 K, x1 = 0.2312	1125	–
313.15 K, x1 = 0.2704	–	170.4
313.15 K, x1 = 0.3559	1142.7	–
313.15 K, x1 = 0.362	–	198.4
313.15 K, x1 = 0.4035	1147.3	–
313.15 K, x1 = 0.4454	–	222.8
313.15 K, x1 = 0.5195	1153.7	–
313.15 K, x1 = 0.6432	–	282.1
313.15 K, x1 = 0.7087	1165.6	–
313.15 K, x1 = 0.7512	1167.4	–
313.15 K, x1 = 0.8094	–	334
313.15 K, x1 = 0.8791	–	355.8
313.15 K, x1 = 0.8838	1169.5	–
313.15 K, x1 = 0.9468	–	378.4
313.15 K, x1 = 1	1174.9	395.9
318.15 K, x1 = 0.0015	–	77.1
318.15 K, x1 = 0.002	–	77.7
318.15 K, x1 = 0.0027	–	78
318.15 K, x1 = 0.0036	–	78.4
318.15 K, x1 = 0.0102	–	81.7
318.15 K, x1 = 0.0494	1051.3	–
318.15 K, x1 = 0.0938	–	114.7
318.15 K, x1 = 0.0973	1079	–
318.15 K, x1 = 0.1885	–	146
318.15 K, x1 = 0.2312	1121.2	–
318.15 K, x1 = 0.2704	–	171.4
318.15 K, x1 = 0.3559	1139.1	–
318.15 K, x1 = 0.362	–	199.5
318.15 K, x1 = 0.4035	1143.7	–
318.15 K, x1 = 0.4454	–	224
318.15 K, x1 = 0.5195	1150.2	–
318.15 K, x1 = 0.6432	–	283.8
318.15 K, x1 = 0.7087	1162.2	–
318.15 K, x1 = 0.7512	1163.9	–
318.15 K, x1 = 0.8094	–	336.3
318.15 K, x1 = 0.8791	–	358.5
318.15 K, x1 = 0.8838	1166.1	–
318.15 K, x1 = 0.9468	–	381.3
318.15 K, x1 = 1	1171.6	399.3
